# pIC50: −log10 of the molar value. *1 amine or outer side, *2 acyl side, *3 side chain or, on linkers, in order; H or OH if unused. Where a SMILES comes first, the peptide text is derived from it. Bridges are numbered along the chain shown (N, C = ends). [ ]: non-standard residue; d: D form. ξ: configuration not given here. Trp(1-CH2COOH) = N[C@@H](Cc1cn(CC(=O)O)c2ccccc12)C(=O)O; Phe(3,4,5-F3) = N[C@@H](Cc1cc(F)c(F)c(F)c1)C(=O)O; Phe(3,4-F2) = N[C@@H](Cc1ccc(F)c(F)c1)C(=O)O; NMePhe(4-F) = CN[C@@H](Cc1ccc(F)cc1)C(=O)O; Phe(4-F) = N[C@@H](Cc1ccc(F)cc1)C(=O)O; d(cisHyp) = O=C(O)[C@H]1C[C@@H](O)CN1; NMeY = CN[C@@H](Cc1ccc(O)cc1)C(=O)O; Hyp = O=C(O)[C@@H]1C[C@@H](O)CN1; NMeF = CN[C@@H](Cc1ccccc1)C(=O)O; X1 = O=C([C@H]1COCCN1[*:1])[*:2]; dHyp = O=C(O)[C@H]1C[C@H](O)CN1; NMehSer = CN[C@@H](CCO)C(=O)O; NMeNle = CCCC[C@H](NC)C(=O)O; dPip = O=C(O)[C@H]1CCCCN1; hSer = N[C@@H](CCO)C(=O)O; NMeA = CN[C@@H](C)C(=O)O; Orn = NCCC[C@H](N)C(=O)O; dNMeA = CN[C@H](C)C(=O)O; Dab = NCC[C@H](N)C(=O)O; Dap = NC[C@H](N)C(=O)O; ξC = NC(CS)C(=O)O
# Molecular target: T1, Human PD-L1/PD-1 (Homo sapiens, UniProt Q9NZQ7)
# T1 construct: TVMV protease cleavage site (C); made in house; host or cells: HEK293T cells
# T1 sequence (Q9NZQ7 with tags, fused parts or gaps): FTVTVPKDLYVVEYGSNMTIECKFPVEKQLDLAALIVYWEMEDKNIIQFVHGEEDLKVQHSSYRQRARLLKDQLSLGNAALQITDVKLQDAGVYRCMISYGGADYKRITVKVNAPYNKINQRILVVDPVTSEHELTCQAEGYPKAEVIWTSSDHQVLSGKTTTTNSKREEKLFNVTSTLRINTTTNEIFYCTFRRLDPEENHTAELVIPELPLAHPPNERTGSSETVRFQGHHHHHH
# Experiment: HTRF Human PD-L1/PD-1 binding assay (PD-1-Ig/PD-L1-His)
# Details: PD-L1-His 10 nM, PD-1-Ig 20 nM; class symbol; read-out: HTRF Human PD-L1/PD-1 Binding Assay IC50 Range
# In short: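 Step 1: compound with PD-L1-His (10 nM final), 15 min. Step 2: PD-1-Ig (20 nM final), 15 min. Step 3: Eu-cryptate anti-Ig (1 nM) plus APC anti-His (20 nM), 30 min equilibration. Signal taken as 665 nm/620 nm ratio.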
row,Compound,pIC50
1,CCCC[C@H]1C(=O)N(C)[C@@H](CCCC)C(=O)N[C@@H](CC(=O)O)C(=O)N[C@H](C(=O)NCC(N)=O)CSCC(=O)N[C@@H](Cc2ccc(O)cc2)C(=O)N(C)[C@@H](C)C(=O)N[C@@H](CC(N)=O)C(=O)N2CCC[C@H]2C(=O)N[C@@H](Cc2c[nH]cn2)C(=O)N[C@@H](CCC(=O)O)C(=O)N2C[C@H](O)C[C@H]2C(=O)N[C@@H](Cc2c[nH]c3ccccc23)C(=O)N[C@@H](CCN)C(=O)N[C@@H](Cc2cn(CC(=O)O)c3ccccc23)C(=O)N1C [Example 5181] ({CH2CO}-Y[NMeA]NPHE[Hyp]W[Dab][Trp(1-CH2COOH)][NMeNle][NMeNle]DCG-NH2; thioether N-14),7.00 to 8.00
2,"CCCC[C@H]1C(=O)N2C[C@H](O)C[C@@H]2C(=O)N[C@@H](CC(=O)O)C(=O)N[C@@H](C(C)C)C(=O)N(C)[C@@H](Cc2ccccc2)C(=O)N[C@@H](CCC(=O)O)C(=O)N2C[C@@H](O)C[C@@H]2C(=O)N[C@@H](Cc2c[nH]c3ccccc23)C(=O)N[C@@H](Cc2ccc(O)cc2)C(=O)N[C@@H](CC(C)C)C(=O)N[C@H](C(=O)NCC(N)=O)CSCC(=O)N[C@@H](Cc2cc(F)c(F)c(F)c2)C(=O)N(C)[C@@H](Cc2ccccc2)C(=O)N1C [Example 9373] ({CH2CO}-[Phe(3,4,5-F3)][NMeF][NMeNle][d(cisHyp)]DV[NMeF]E[dHyp]WYLCG-NH2; thioether N-13)",7.00 to 8.00
3,"CCCC[C@H]1C(=O)N2CCC[C@@H]2C(=O)N[C@@H](CC(=O)O)C(=O)N[C@@H](C(C)C)C(=O)N(C)[C@@H](Cc2ccccc2)C(=O)N[C@@H](CCC(=O)O)C(=O)N2CCOC[C@@H]2C(=O)N[C@@H](Cc2c[nH]c3ccccc23)C(=O)N[C@@H](Cc2ccc(O)cc2)C(=O)N[C@@H](CCC(N)=O)C(=O)N[C@H](C(=O)NCC(N)=O)CSCC(=O)N[C@@H](Cc2cc(F)c(F)c(F)c2)C(=O)N(C)[C@@H](Cc2ccc(O)cc2)C(=O)N1C [Example 10619] ({CH2CO}-[Phe(3,4,5-F3)][NMeY][NMeNle][dP]DV[NMeF]E[X1]WYQCG-NH2; thioether N-13)",7.00 to 8.00
4,"CCCC[C@H]1C(=O)N(C)CC(=O)N[C@@H](CC(N)=O)C(=O)N[C@@H](C(C)C)C(=O)N(C)[C@@H](Cc2ccccc2)C(=O)N[C@@H](Cc2ccc(O)cc2)C(=O)N(C)CC(=O)N[C@@H](Cc2c[nH]c3ccccc23)C(=O)N[C@@H](Cc2ccc(O)cc2)C(=O)N[C@@H](CCCN)C(=O)N[C@H](C(=O)NCC(N)=O)CSCC(=O)N[C@@H](Cc2ccccc2)C(=O)N(C)[C@@H](Cc2ccncc2)C(=O)N1C (single isomer, unassigned) [Example 3638-A]",5.00 to 6.00
5,CCCC[C@H]1C(=O)N(C)[C@@H](CCCC)C(=O)N[C@@H](CN)C(=O)N[C@H](C(=O)NCC(N)=O)CSCC(=O)N[C@@H](Cc2ccc(O)cc2)C(=O)N(C)[C@@H](C)C(=O)N[C@@H](CC(N)=O)C(=O)N2CCC[C@H]2C(=O)N[C@@H](CO)C(=O)N[C@@H](Cc2cnc[nH]2)C(=O)N2C[C@H](O)C[C@H]2C(=O)N[C@@H](Cc2c[nH]c3ccccc23)C(=O)N[C@@H](CCN)C(=O)N[C@@H](Cc2cn(CC(=O)O)c3ccccc23)C(=O)N1C [Example 6247] ({CH2CO}-Y[NMeA]NPSH[Hyp]W[Dab][Trp(1-CH2COOH)][NMeNle][NMeNle][Dap]CG-NH2; thioether N-14),8.00 to 9.00
6,CCCC[C@H]1C(=O)N2CCC[C@@H]2C(=O)N[C@@H](CC(=O)O)C(=O)N[C@@H](C(C)C)C(=O)N(C)[C@@H](Cc2ccccc2)C(=O)N[C@@H](CCCN)C(=O)N2CCC[C@@H]2C(=O)N[C@@H](Cc2c[nH]c3ccccc23)C(=O)N[C@@H](Cc2ccc(O)cc2)C(=O)N[C@@H](CC(C)C)C(=O)N[C@H](C(=O)NCC(N)=O)CSCC(=O)N[C@@H](Cc2ccccc2)C(=O)N(C)[C@@H](Cc2ccccc2)C(=O)N1C [Example 10103] ({CH2CO}-F[NMeF][NMeNle][dP]DV[NMeF][Orn][dP]WYLCG-NH2; thioether N-13),8.00 to 9.00
7,"CCCC[C@H]1C(=O)N2C[C@H](O)C[C@@H]2C(=O)N[C@@H](CC(=O)O)C(=O)N[C@@H](C(C)C)C(=O)N(C)[C@@H](Cc2ccccc2)C(=O)N[C@@H](CCCN)C(=O)N2C[C@H](O)C[C@@H]2C(=O)N[C@@H](Cc2c[nH]c3ccccc23)C(=O)N[C@@H](Cc2ccc(O)cc2)C(=O)N[C@@H](CCCN)C(=O)N[C@H](C(=O)NCC(N)=O)CSCC(=O)N[C@@H](Cc2ccc(F)c(F)c2)C(=O)N(C)[C@@H](Cc2ccccc2)C(=O)N1C [Example 9308] ({CH2CO}-[Phe(3,4-F2)][NMeF][NMeNle][d(cisHyp)]DV[NMeF][Orn][d(cisHyp)]WY[Orn]CG-NH2; thioether N-13)",8.00 to 9.00
8,CCCC[C@H]1C(=O)N(C)[C@@H](CCCC)C(=O)N[C@@H](CC(C)C)C(=O)NC(C(=O)NCC(N)=O)CSCC(=O)N[C@@H](Cc2ccc(O)cc2)C(=O)N(C)[C@@H](C)C(=O)N[C@@H](CC(N)=O)C(=O)N2CCC[C@H]2C(=O)N[C@@H](CC(N)=O)C(=O)N[C@@H](CC(C)C)C(=O)N2CCC[C@H]2C(=O)N[C@@H](Cc2c[nH]c3ccccc23)C(=O)N[C@@H](CO)C(=O)N[C@@H](Cc2c[nH]c3ccccc23)C(=O)N1C (stereo partly drawn) [Example 9161] ({CH2CO}-Y[NMeA]NPNLPWSW[NMeNle][NMeNle]L[ξC]G-NH2; thioether N-14),8.00 to 9.00
9,CCCC[C@H]1C(=O)N2CCC[C@@H]2C(=O)N[C@@H](CC(=O)O)C(=O)N[C@@H](C(C)C)C(=O)N(C)[C@@H](Cc2ccc(F)cc2)C(=O)N[C@@H](CC(=O)O)C(=O)N2CCC[C@@H]2C(=O)N[C@@H](Cc2c[nH]c3ccccc23)C(=O)N[C@@H](Cc2ccc(O)cc2)C(=O)N[C@@H](CC(C)C)C(=O)N[C@H](C(=O)NCC(N)=O)CSCC(=O)N[C@@H](Cc2ccc(F)cc2)C(=O)N(C)[C@@H](Cc2ccccc2)C(=O)N1C [Example 10110] ({CH2CO}-[Phe(4-F)][NMeF][NMeNle][dP]DV[NMePhe(4-F)]D[dP]WYLCG-NH2; thioether N-13),8.00 to 9.00

# Continued, values first:
row,pIC50,Compound
1,8.00 to 9.00,"CC(C)C[C@@H]1NC(=O)[C@H](Cc2ccc(O)cc2)NC(=O)[C@H](Cc2c[nH]c3ccccc23)NC(=O)[C@@H](C)N(C)C(=O)[C@H](Cc2ccc(O)cc2)NC(=O)[C@H](Cc2ccccc2)N(C)C(=O)[C@H](C(C)C)NC(=O)[C@H](CC(=O)O)NC(=O)[C@@H](C)N(C)C(=O)[C@H](C)N(C)C(=O)[C@H](Cc2ccccc2)N(C)C(=O)[C@H](Cc2cc(F)c(F)c(F)c2)NC(=O)CSC[C@@H](C(=O)NCC(N)=O)NC1=O [Example 9188] ({CH2CO}-[Phe(3,4,5-F3)][NMeF][NMeA][dNMeA]DV[NMeF]Y[dNMeA]WYLCG-NH2; thioether N-13)"
2,8.00 to 9.00,CCCC[C@H]1C(=O)N(C)[C@@H](CCCC)C(=O)N[C@@H](CCCNC(=N)N)C(=O)NC(C(=O)NCC(N)=O)CSCC(=O)N[C@@H](Cc2ccc(O)cc2)C(=O)N(C)[C@@H](C)C(=O)N[C@@H](CC(N)=O)C(=O)N2CCC[C@H]2C(=O)N[C@@H](CCO)C(=O)N[C@@H](CO)C(=O)N2CCC[C@H]2C(=O)N[C@@H](Cc2c[nH]c3ccccc23)C(=O)N[C@@H](CO)C(=O)N[C@@H](Cc2c[nH]c3ccccc23)C(=O)N1C (stereo partly drawn) [Example 10034] ({CH2CO}-Y[NMeA]NP[hSer]SPWSW[NMeNle][NMeNle]R[ξC]G-NH2; thioether N-14)
3,8.00 to 9.00,"CCCC[C@H]1C(=O)N2C[C@@H](O)C[C@@H]2C(=O)N[C@@H](CC(=O)O)C(=O)N[C@@H](C(C)C)C(=O)N(C)[C@@H](Cc2ccccc2)C(=O)N[C@@H](CCC(=O)O)C(=O)N2CCCC[C@@H]2C(=O)N[C@@H](Cc2c[nH]c3ccccc23)C(=O)N[C@@H](Cc2ccc(O)cc2)C(=O)N[C@@H](CCN)C(=O)N[C@H](C(=O)NCC(N)=O)CSCC(=O)N[C@@H](Cc2cc(F)c(F)c(F)c2)C(=O)N(C)[C@@H](Cc2ccc(F)cc2)C(=O)N1C [Example 10566] ({CH2CO}-[Phe(3,4,5-F3)][NMePhe(4-F)][NMeNle][dHyp]DV[NMeF]E[dPip]WY[Dab]CG-NH2; thioether N-13)"
4,8.00 to 9.00,CCCC[C@H]1C(=O)N(C)[C@@H](CCCC)C(=O)N[C@@H](CCC(=O)O)C(=O)N[C@H](C(=O)NCC(N)=O)CSCC(=O)N[C@@H](Cc2ccc(OC)cc2)C(=O)N(C)[C@@H](C)C(=O)N[C@@H](CC(=O)O)C(=O)N2CCC[C@H]2C(=O)N[C@@H](CN)C(=O)N[C@@H](CCCCN)C(=O)N2C[C@H](O)C[C@H]2C(=O)N[C@@H](Cc2c[nH]c3ccccc23)C(=O)N[C@@H](CCN)C(=O)N[C@@H](Cc2cn(CC(=O)O)c3ccccc23)C(=O)N1C [Example 7148] ({CH2CO}-Y(Me)[NMeA]DP[Dap]K[Hyp]W[Dab][Trp(1-CH2COOH)][NMeNle][NMeNle]ECG-NH2; thioether N-14)
5,8.00 to 9.00,"CCCC[C@H]1C(=O)N2CCC[C@@H]2C(=O)N[C@@H](CC(=O)O)C(=O)N[C@@H](C(C)C)C(=O)N(C)[C@@H](Cc2ccccc2)C(=O)N[C@@H](CCC(=O)O)C(=O)N2CCOC[C@@H]2C(=O)N[C@@H](Cc2c[nH]c3ccccc23)C(=O)N[C@@H](Cc2ccc(O)cc2)C(=O)N[C@@H](CCCCN)C(=O)N[C@H](C(=O)NCC(N)=O)CSCC(=O)N[C@@H](Cc2cc(F)c(F)c(F)c2)C(=O)N(C)[C@@H](Cc2ccc(F)cc2)C(=O)N1C [Example 10598] ({CH2CO}-[Phe(3,4,5-F3)][NMePhe(4-F)][NMeNle][dP]DV[NMeF]E[X1]WYKCG-NH2; thioether N-13)"

# Same assay, conditions: PD-L1-His 10 nM, PD-1-Ig 20 nM; read-out: HTRF Human PD-L1/PD-1 Binding Assay IC50
row,pIC50,Compound
1,7.96,CCCC[C@H]1C(=O)N(C)[C@@H](CCOC)C(=O)N[C@@H](CC(C)C)C(=O)N[C@H](C(=O)NCC(N)=O)CSCC(=O)N[C@@H](Cc2ccc(O)cc2)C(=O)N(C)[C@@H](C)C(=O)N[C@@H](CC(N)=O)C(=O)N2CCC[C@H]2C(=O)N[C@@H](Cc2c[nH]cn2)C(=O)N[C@@H](CCC(N)=O)C(=O)N2C[C@H](O)C[C@H]2C(=O)N[C@@H](Cc2c[nH]c3ccccc23)C(=O)NCC(=O)N[C@@H](Cc2c[nH]c3ccccc23)C(=O)N1C [Example 10143] ({CH2CO}-Y[NMeA]NPHQ[Hyp]WGW[NMeNle][NMehSer](Me)LCG-NH2; thioether N-14)

# Source: patent US10538555B2, “Macrocyclic inhibitors of the PD-1/PD-L1 and CD80(B7-1)/PD-L1 protein/protein interactions” (BRISTOL-MYERS SQUIBB COMPANY, priority 2014, dated 2020)
